According to article PMC10525924, “Engineering and Purification of Microcin C7 Variants Resistant to Trypsin and Analysis of Their Biological Activity” (Antibiotics, 2023):
In brackets after ≈: the same amount, converted by molar mass. Where a SMILES comes first, the peptide text is derived from it.

Tests used:
[1] = Remaining amount by RP-HPLC after pepsin treatment; assay type: in vitro ADME; conditions: isolated enzyme pepsin; pepsin treated for 3 h; read-out RP-HPLC; Table S2
Method: (§3) To test whether the variants were tolerant to trypsin or other digestive enzymes, the amount of the remaining McC and its analogues remaining was determined by RP-HPLC after trypsin, pepsin, and chymotrypsin treated for 3 h (Table S2), and the inhibition zones of trypsin-treated variants were tested using the same method (Table 2).

[2] = Remaining amount by RP-HPLC after chymotrypsin treatment; assay type: in vitro ADME; conditions: isolated enzyme chymotrypsin; chymotrypsin treated for 3 h; read-out RP-HPLC; Table S2
Method: as §3

[3] = test system: Yej^+rimL^− strain; assay: organism not typed; assay type: cell-based; conditions: agar diffusion; for Diameters of the inhibition zones, Trypsin-Untreated Group, Yej^+rimL^−: 200 μL fermentation supernatant, 1 × 10^5 CFU/mL, 4 °C 1 h then 37 °C 24 h, chloramphenicol 100 μL of 0.25 μg/mL; for Diameters of the inhibition zones, Trypsin-Untreated Group, Yej^+rimL^− / Diameters of the inhibition zones, Trypsin-Treated Group, Yej^+rimL^−: dash = no zone; for Diameters of the inhibition zones, Trypsin-Treated Group, Yej^+rimL^− / bacteriostatic activity after trypsin treatment, Yej^+rimL^−: supernatant treated with trypsin 50 μg/mL, 37 °C, 3 h; for Diameters of the inhibition zones, Trypsin-Treated Group, Yej^+rimL^−: pH 6.8, 37 °C 24 h
Text: To analyze the antimicrobial ability of the variants, we measured the inhibition zones of all 21 variants by the agar diffusion method. The peptide moiety of McC was recognized by a YejABEf-peptide transporter. The rimL contains an acetyltransferase domain homologous to MccE which can detoxify and provide resistance to McC [17]. The overexpression of the YejABEF gene cluster and rimL gene knockout made the strain hypersensitive to McC. Therefore, the Yej^+rimL^− strain was selected as the sensitive indicator bacterial strain.
(§1) The pH was adjusted to 6.8.
(§2) The fermentation supernatants and pure products were used to characterize the bacteriostatic effects of McC variants by the agar diffusion and microdilution methods. Yej^+rimL^− and E. coli K88 indicator bacteria were applied. The serotype of E. coli K88 was O149:K91, K88ac, a clinically isolated strain, and provided by the College of Veterinary Medicine, China Agricultural University. The indicated bacteria were diluted to 1 × 10^5 CFU/mL and added to plate medium cooled to 50 °C. Two hundred microliters of supernatants were added to each dish, and diffusion was performed at 4 °C for 1 h. After incubation at 37 °C for 24 h, the diameters of the inhibition zones were determined. One hundred microliters of 0.25 μg/mL chloramphenicol was used as a control. The MICs of the pure McC variants were determined by microdilution in a sterilized 96-well microplate. The McC variants were serially diluted 2 times in 96-well microplates with LB medium. The concentrations of the McC variants ranged from 0.125 to 100 µg/mL. Each well was inoculated with 10 μL of overnight bacterial culture at a concentration of 1.0 × 10^5 CFU/mL and incubated at 37 °C for 24 h. A microplate reader was used to automatically observe changes in absorbance at 600 nm in order to monitor bacterial growth. A positive control group (including inoculated medium) and a negative control group (with medium only) were included. The MIC was determined as the lowest concentration of McC variant that inhibited bacterial growth (preventing an increase in the absorbance reading). All tests were performed in triplicate.

[4] = test system: E. coli K88; assay: microbe, parasite or virus in culture; assay type: cell-based; conditions: agar diffusion; 200 μL fermentation supernatant; 1 × 10^5 CFU/mL; 4 °C 1 h then 37 °C 24 h; chloramphenicol 100 μL of 0.25 μg/mL; dash = no zone
Method: as §1, §2

[5] = test system: Yej^+rimL^− strain; assay type: cell-based; conditions: HPLC-purified variants; microdilution in LB, 96-well; 0.125 to 100 µg/mL; 1.0 × 10^5 CFU/mL; 37 °C 24 h; absorbance 600 nm; triplicate
Method: To accurately characterize the bacteriostatic abilities of the variants, the MICs of the pure McC variants toward the McCsensitive strain Yej^+rimL^− were determined. The MICs of all variants were lower than that of wild-type McC. From smallest to largest MIC, the above five variants were in the following order: R2A, R2T, R2Q, R2S, and R2H. […] Although the diameter of the inhibitory zone of R2M was smaller than those of the above five variants, the bacteriostatic ability of R2M was second only to R2T/R2Q, and the MIC was 50 μg/mL.
as §2

[6] = HPLC retention time according to hydrophobicity; assay type: physicochemical; conditions: chromatographic, C18 5 μm 9.4 × 250 mm; A 0.1% trichloroacetic acid, B 0.1% trichloroacetic acid with 90% acetonitrile; linear 5% B to 50% B; 1 mL/min; 35 °C; 280 nm; varies according to hydrophobicity
Method: To find the separation peaks of the variants, wildtype McC and blank control fermentation broth samples were tested by HPLC. The separation peaks with obvious differences (those with retention times of 11 min and 17 min) were purified and the antimicrobial activity was determined. […] Therefore, the molecular weight was further analyzed by mass spectrometry, and the separation peak at approximately 17 min was confirmed to be that of the desired purified McC. Since the mutations in this study involved only one amino acid and had few effects on the properties of the peptides, we predicted that the separation peaks of the variants should fluctuate around approximately 17 min according to their hydrophobicity. […] The purity of the purified variants was determined by HPLC to be greater than 80% (Table 3).
The lyophilized supernatants were dissolved in deionized water, filtered through 0.22 μm aqueous-phase filter membranes, and purified by high-performance liquid chromatography (HPLC, Agilent Technologies Inc., Palo Alto, CA, USA) with C18 column (5 μm 9.4 × 250 mm, Agilent Technologies Inc., Palo Alto, CA, USA). The mobile phase was composed of 0.1% (v/v) trichloroacetic acid (solvent A) and 0.1% (v/v) trichloroacetic acid with 90% (v/v) acetonitrile (solvent B). A linear gradient from 95% A/5% B to 50% A/50% B was used with a flow rate of 1 mL/min, a sample volume of 10 μL, a column temperature of 35 °C, and a detection wavelength of 280 nm. Electrospray ionization mass spectrometry (ESI-MS) was used to compare the McC variant masses with the expected masses. The relationships between the relative abundances and the mass-to-charge ratios (m/z) of the ions were determined to confirm the identities of the experimentally produced McC variants.

Structure (SMILES)	remaining at 3 h [1] [%]	remaining at 3 h [2] [%]	Diameters of the inhibition zones, Trypsin-Untreated Group, Yej^+rimL^− [3] [mm]	Diameters of the inhibition zones, Trypsin-Treated Group, Yej^+rimL^− [3] [mm]	Diameters of the inhibition zones, Trypsin-Untreated Group, K88 [4] [mm]	MIC [5] [µg/mL]	Retention Time [6] [min]	bacteriostatic activity after trypsin treatment, Yej^+rimL^− [3]
CSCC[C@H](NC=O)C(=O)N[C@@H](CCCCN)C(=O)N[C@H](C(=O)NCC(=O)N[C@@H](CC(N)=O)C(=O)N[C@@H](C)C(=O)N[C@@H](CC(=O)O)C(=O)NP(=O)(OCCCN)OC[C@H]1O[C@@H](n2cnc3c(N)ncnc32)[C@H](O)[C@@H]1O)[C@@H](C)O (stereo partly shown) [R2K] (HELM PEPTIDE1{[O=C[*:2]].M.K.T.G.N.A.[NCCCOP(=O)(NC(=O)[C@H](CC(=O)O)N[*:1])OC[C@H]1O[C@@H](n2cnc3c(N)ncnc32)[C@H](O)[C@@H]1O]}$$$$V2.0)	87.69 ± 0.68	41.4 ± 0.73	20.91	0	16.95			
CSCC[C@H](NC=O)C(=O)N[C@@H](CC(C)C)C(=O)N[C@H](C(=O)NCC(=O)N[C@@H](CC(N)=O)C(=O)N[C@@H](C)C(=O)N[C@@H](CC(=O)O)C(=O)NP(=O)(OCCCN)OC[C@H]1O[C@@H](n2cnc3c(N)ncnc32)[C@H](O)[C@@H]1O)[C@@H](C)O (stereo partly shown) [R2L] (HELM PEPTIDE1{[O=C[*:2]].M.L.T.G.N.A.[NCCCOP(=O)(NC(=O)[C@H](CC(=O)O)N[*:1])OC[C@H]1O[C@@H](n2cnc3c(N)ncnc32)[C@H](O)[C@@H]1O]}$$$$V2.0)	79.25 ± 0.62	39.2 ± 0.75	14.40	0		>100	19.425	
CSCC[C@H](NC=O)C(=O)N[C@H](C(=O)N[C@H](C(=O)NCC(=O)N[C@@H](CC(N)=O)C(=O)N[C@@H](C)C(=O)N[C@@H](CC(=O)O)C(=O)NP(=O)(OCCCN)OC[C@H]1O[C@@H](n2cnc3c(N)ncnc32)[C@H](O)[C@@H]1O)[C@@H](C)O)C(C)C (stereo partly shown) [R2V] (HELM PEPTIDE1{[O=C[*:2]].M.V.T.G.N.A.[NCCCOP(=O)(NC(=O)[C@H](CC(=O)O)N[*:1])OC[C@H]1O[C@@H](n2cnc3c(N)ncnc32)[C@H](O)[C@@H]1O]}$$$$V2.0)	79 ± 1.24	39.1 ± 1.05	21.34	14.62		50 (≈ 44.6 µM)	18.151	exhibited antibacterial effects
CSCC[C@H](NC=O)C(=O)N[C@@H](Cc1ccc(O)cc1)C(=O)N[C@H](C(=O)NCC(=O)N[C@@H](CC(N)=O)C(=O)N[C@@H](C)C(=O)N[C@@H](CC(=O)O)C(=O)NP(=O)(OCCCN)OC[C@H]1O[C@@H](n2cnc3c(N)ncnc32)[C@H](O)[C@@H]1O)[C@@H](C)O (stereo partly shown) [R2Y] (HELM PEPTIDE1{[O=C[*:2]].M.Y.T.G.N.A.[NCCCOP(=O)(NC(=O)[C@H](CC(=O)O)N[*:1])OC[C@H]1O[C@@H](n2cnc3c(N)ncnc32)[C@H](O)[C@@H]1O]}$$$$V2.0)	85.22 ± 0.72	45.4 ± 1.18	18.87	14.93		>100	18.591	exhibited antibacterial effects
